Measured values published in US12398196B2, “Fused polypeptide with multifunctional activities and use thereof” (NANJING ANJI BIOLOGICAL TECHNOLOGY CO., LTD., priority 2019, dated 2025).
Ends that are not written are not given here.

What was measured:
mice with skin fibrosis = experiment: Bleomycin-induced skin fibrosis model; format: in vivo, C57/BL black mice; conditions: C57/BL mice, bleomycin s.c. 28 days; 10 mg/kg s.c. twice a day
Description: Male C57/BL black mice aged 6-8 weeks, purchased from Nanjing Qinglong Mountain Animal Farm. Bleomycin (10 μg/mL) was injected subcutaneously every day for 28 days to form skin fibrosis. During the modeling period, the administration groups were given polypeptide drugs twice a day for treatment. After modeling, the mice were killed on the next day, and the skin tissue of the mouse back was taken to detect the content of HYP in the skin tissue. [table]

[1] = test system: SD rats with bleomycin-induced pulmonary fibrosis; experiment: Bleomycin-induced pulmonary fibrosis animal model; format: in vivo
Description: Source and strain: clean SD rats, provided by Comparative Medicine Center of Yangzhou University (laboratory animal production license: SCXK (Su) 2012-0004); Certification of Using of Laboratory Animal: SYXK (Su) 2012-0035).
SD rats were anesthetized by intraperitoneal injection of 1 mL/100 g 4% chloral hydrate. After anesthesia, the rats were fixed and their necks were disinfected by using cotton with 75% alcohol. The skin of the rat neck was longitudinally cut with scissors, and the fascia and muscle were longitudinally bluntly torn with tweezers to expose the trachea. A syringe was inserted into the trachea to inject 5 mg/kg bleomycin, while a blank group was injected with an equal amount of normal saline. Then a rat plate was quickly erected and rotated, the rats' breathing was observed, the neck wound was sterilized after rotation and was sewn, and an amoxicillin anti-inflammatory drug was sprinkled on the suture. After the operation, the rats were put back into a dry and clean cage for resting, waiting was performed for awakening. The rats were awakened after about 1-2 hours, and then fed normally. On the 7th day after modeling, modeling group animals randomly fell into a model group, a Nintedanib positive drug group, polypeptide I, II, III and IV dosage groups, and a normal control group, and the groups were administered separately for an administration cycle of 14 days. Living situations of rats were observed every day and their weights were weighed. After administration for 14 days, the eyeballs were removed and blood was taken, the rats were dissected, and lungs were taken. The content of TGF-β1 in serum and the content of HYP in lung tissues were detected.

protozoa = experiment: Mouse pneumonia model, protozoal pneumonia; format: in vivo, BALB/C mice; design: unit not given here; conditions: nasal drip, average values + standard deviation
From the text: (§1) A mouse pneumonia model was successfully established by using a nasal drip method. BALB/C mice with a body weight of 18-24 g were selected, and then anesthetized with ether on day 0, day 1 and day 2, respectively, prepared Streptococcus pneumoniae bacteria solution, adenovirus concentrated solution, Mycoplasma pneumoniae, Chlamydia pneumoniae, protozoa and pneumonia fungi were slowly dropped into the nasal cavity of the mice, so that the bacteria solutions entered the trachea and bronchi, and the bacteria solutions were prevented from flowing into the esophagus during the operation to avoid inactivation of the bacteria solutions, so that the mouse pneumonia model was established. After the model was successfully established, the polypeptide according to the present disclosure was administered, as shown in FIG. 9 and Table 7. […] The experimental results are represented on the basis of average values+standard deviation.

[2] = test system: multiple pulmonary infections; experiment: Mouse pneumonia model, pneumonia caused by pulmonary infections; format: in vivo, BALB/C mice; design: unit not given here; conditions: nasal drip, average values + standard deviation
From the text: as §1

adenovirus = experiment: Mouse pneumonia model, viral pneumonia; format: in vivo, BALB/C mice; design: unit not given here; conditions: nasal drip, average values + standard deviation
From the text: as §1

[3] = test system: mice with myocardial fibrosis; experiment: Isoprenaline-induced myocardial fibrosis model; format: in vivo; conditions: BALB/c mice, isoprenaline 5 mg/kg 7 days; 12 mg/kg s.c. twice a day
Description: 1. Experimental Mice: 10-Week-Old Male BALB/c Mice (with an Average Weight of 20 g).
In the model group, the experimental mice were injected with isoprenaline (ISO) (5 mg/kg) subcutaneously on the back of the mice every day for 7 consecutive days, and the mice were injected with normal saline subcutaneously (200 μL/mouse) every day. In the blank group, normal saline was injected subcutaneously (200 μL/mouse) every day. While a model was made, polypeptide drugs were administrated for treatment by subcutaneous injection. After the 8th day, blood was taken and was centrifuged, the supernatant was taken, and the content of TGF-β1 in serum was detected.

pneumonia fungi = experiment: Mouse pneumonia model, fungal pneumonia; format: in vivo, BALB/C mice; design: unit not given here; conditions: nasal drip, average values + standard deviation
From the text: as §1

Mycoplasma pneumoniae = experiment: Mouse pneumonia model, mycoplasma pneumonia; format: in vivo, BALB/C mice; design: unit not given here; conditions: nasal drip, average values + standard deviation
From the text: as §1

Chlamydia pneumoniae = experiment: Mouse pneumonia model, chlamydia pneumonia; format: in vivo, BALB/C mice; design: unit not given here; conditions: nasal drip, average values + standard deviation
From the text: as §1

[4] = test system: SD rats with renal fibrosis; experiment: Renal fibrosis model (ureter ligation); format: in vivo; conditions: 6 mg/kg s.c. twice a day, 14 days
Description: Clean grade male SD rats, purchased from Nanjing Qinglong Mountain Animal Farm, and weighed 180-200 g at the time of purchase, 190-210 g at the beginning of modeling, and 180-200 g at the beginning of administration.
A renal fibrosis animal model was established. SD rats were anesthetized with 4% chloral hydrate, injected with 1 mL/100 g intraperitoneally, fixed to an operation board, and sterilized in an operation area for later use. […] Muscular layers and abdominal walls were sewed layer by layer, the suture was disinfected with alcohol. After SD rats woke up, the rats were put into a cage for feeding. In the blank group, ureter was not ligated, and other steps were the same.
Then, the animals fell into a blank group, a model group, and polypeptide administration groups, with 10 animals in each group, and the administration was started on the second day after the operation, and was performed for 14 days. After administration for 14 days, blood was taken and supernatant was taken to detect the content of TGF-β1 in serum.

[5] = test system: SD rats with CCl4-induced hepatic fibrosis; experiment: CCl4-induced hepatic fibrosis animal model; format: in vivo; conditions: CCl4 8 weeks, polypeptides 6 mg/kg s.c. once a day, colchicine intragastric 5 times/week
Description: Source and strain: SPF level, SD rats, provided by Shanghai Xipuer-Bikai laboratory Animal Co., Ltd. (laboratory animal license: SCXK (hu) 2013-0016)
There were 10 rats in each group. Modeling was performed on the rats. Each group other than the blank group was injected with 40% CCl4 intraperitoneally twice a week, the first injection was performed at 3 mL/kg, and then administration was performed at 2 mL/kg. Administration was performed for 8 weeks, and a total of 16 injections were provided to induce hepatic fibrosis. After the intraperitoneal injection of CCl4 for the fourth time, polypeptide therapy was started on the next day, and administration was performed by subcutaneous injection once a day until the end of induction. After the intraperitoneal injection of CCl4 for the fourth time, colchicine was administrated on the next day at 200 μg/kg, 5 times a week, and intragastric administration therapy was implemented. After induction for 8 weeks, the administration was stopped. On the second day, the SD rats were dissected, blood was taken, and the liver tissue was taken and stored in a refrigerator at −80° C. for later use. The expressions of AST and ALT in serum and HYP in the rat liver tissue were detected.

Streptococcus pneumoniae = experiment: Mouse pneumonia model, bacterial pneumonia; format: in vivo, BALB/C mice; design: unit not given here; conditions: nasal drip, average values + standard deviation
From the text: as §1

[6] = bleomycin-induced pulmonary fibrosis, polypeptides 10 mg/kg s.c. twice a day, Nintedanib 25 mg/kg intragastric once a day, 14 days

PRCYRGEGGGGIVRRADRAAVPGGGGRGD [Polypeptide II]
content of HYP in the skin tissue, difference from model group (mice with skin fibrosis): highly significantly different from the model group (*P<0.05) | Survival rate (%) ([1]; bleomycin 5 mg/kg intratracheal, polypeptides 10 mg/kg subcutaneous twice a day for 14 days, positive drug Nintedanib intragastric once a day, model group 57.1%): 78.6% | reduction of HYP in lung tissues compared with the positive drug ([1]; bleomycin-induced pulmonary fibrosis, comparison with Nintedanib): better effects than the positive drug | content of HYP in lung tissues, difference from model group [1, 6]: highly significantly different from the model group (*** P<0.001) | content of TGF-β1 in serum, difference from model group [1, 6]: highly significantly different from the model group (*** P<0.001) | Inhibitory effect on pulmonary infections: Protozoal pneumonia (protozoa): 63.60 ± 6.16 | Inhibitory effect on pulmonary infections: Pneumonia caused by pulmonary infections [2]: 63.15 ± 5.87 | Inhibitory effect on pulmonary infections: Viral pneumonia (adenovirus): 50.27 ± 8.08 | content of TGF-β1 in serum, difference from model group [3]: highly significantly different from the model group (*P<0.05) | Inhibitory effect on pulmonary infections: Fungal pneumonia (pneumonia fungi): 60.32 ± 3.07 | Inhibitory effect on pulmonary infections: Mycoplasma pneumonia (Mycoplasma pneumoniae): 45.69 ± 5.72 | Inhibitory effect on pulmonary infections: Chlamydia pneumonia (Chlamydia pneumoniae): 45.81 ± 5.21 | content of TGF-β1 in serum, difference from model group [4]: highly significantly different from the model group (*** P<0.001) | content of AST in serum, difference from model group [5]: highly significantly different from the model group (*** P<0.001) | content of HYP in the liver tissue, difference from model group [5]: highly significantly different from the model group (*** P<0.001) | Inhibitory effect on pulmonary infections: Bacterial pneumonia (Streptococcus pneumoniae): 41.25 ± 9.48
